In brackets after ≈: the same amount, converted by molar mass.
settings: buffer; pH 7.4; 200.0 µM

Which solubility kinetic does the source give for `COc1ccc(NC(C)=O)cc1CP(=O)(c1ccccc1)c1ccccc1` here?
Its solubility kinetic is greater than 56.9 µg/mL.

With `COc1ccc(C(=O)NCCNc2ccccc2[N+](=O)[O-])cc1` as the molecule, how does the solubility kinetic read?
The solubility kinetic was 36.3 µg/mL (≈ 115 µM).

For `Cc1cc(Cc2ccc([N+](=O)[O-])cc2)c(C)cn1`, which solubility kinetic is on record?
Its solubility kinetic is greater than 36.3 µg/mL.

Which solubility kinetic does the source give for `O=C(CSc1cccc[n+]1[O-])c1cccs1` here?
The solubility kinetic was 28 µg/mL (≈ 111 µM).

For `O=c1[nH]c2ccccc2c(O)c1O`, which solubility kinetic is on record?
Its solubility kinetic is greater than 26.6 µg/mL.

With `O=C(NC1CCCc2ccccc21)c1c(F)cccc1Cl` (stereo unspecified) as the molecule, how does the solubility kinetic read?
The solubility kinetic was 8.3 µg/mL (≈ 27.3 µM).

Which solubility kinetic does the source give for `CCn1cnc2c(oc3ccccc32)c1=O` here?
Its solubility kinetic is 31.9 µg/mL (≈ 149 µM).

With `CSc1ccccc1NC(=O)CN(C)C(=O)COc1cccc2cccnc12` as the molecule, how does the solubility kinetic read?
Its solubility kinetic is greater than 59.3 µg/mL.

With `COC(=O)c1sccc1NC(=O)c1ccc(C#N)cc1` as the molecule, how does the solubility kinetic read?
The solubility kinetic was 1.8 µg/mL (≈ 6.29 µM).

Which solubility kinetic does the source give for `Cc1ccc(Cc2nc3ccccc3[nH]2)cc1` here?
Its solubility kinetic is 31.8 µg/mL (≈ 143 µM).

For `COc1ccc(CC(=O)NC(=S)Nc2cccc(C)c2)cc1`, which solubility kinetic is on record?
The solubility kinetic was 4 µg/mL (≈ 12.7 µM).

For `CC(NC(=O)Cc1ccc([N+](=O)[O-])cc1)c1ccc2c(c1)OCO2` (stereo unspecified), which solubility kinetic is on record?
The solubility kinetic was 7.9 µg/mL (≈ 24.1 µM).

With `O=C(Nc1cccc(S(=O)(=O)N2CCCC2)c1)c1ccco1` as the molecule, how does the solubility kinetic read?
The solubility kinetic was greater than 48.1 µg/mL.

With `O=[N+]([O-])c1cccc(-c2cnc3ccccc3n2)c1` as the molecule, how does the solubility kinetic read?
Its solubility kinetic is less than 0.2 µg/mL.

With `Cc1ccccc1NC(=O)C1CCN(C(=O)NC2CCCCC2)CC1` as the molecule, how does the solubility kinetic read?
The solubility kinetic was greater than 51.5 µg/mL.

With `O=C(NCCc1ccc(F)cc1)c1ccc([N+](=O)[O-])cc1` as the molecule, how does the solubility kinetic read?
The solubility kinetic was 4.6 µg/mL (≈ 16 µM).

Which solubility kinetic does the source give for `COc1ccc2[nH]cc(CCNC(=O)Cc3ccc(F)cc3)c2c1` here?
The solubility kinetic was 25.4 µg/mL (≈ 77.8 µM).

For `CC1CCN(CCc2nc3ccccc3[nH]2)CC1`, which solubility kinetic is on record?
Its solubility kinetic is 33.7 µg/mL (≈ 138 µM).

With `Cc1cccc(NC(=O)c2ccc3c(c2)OCCO3)c1C` as the molecule, how does the solubility kinetic read?
The solubility kinetic was 22.1 µg/mL (≈ 78 µM).

Which solubility kinetic does the source give for `O=C(CNCc1ccccc1)Nc1ccc(Cl)cc1` here?
Its solubility kinetic is 38.6 µg/mL (≈ 140 µM).

With `CCc1ccc2[nH]c(C(=O)Nc3ccc(F)cc3Br)cc2c1` as the molecule, how does the solubility kinetic read?
The solubility kinetic was 0.9 µg/mL (≈ 2.49 µM).

Which solubility kinetic does the source give for `CCOc1ccc(Nc2nc(N)c([N+](=O)[O-])c(NCc3ccccc3)n2)cc1` here?
The solubility kinetic was less than 0.1 µg/mL.

For `CC(=O)c1ccc(Nc2nc(C)cc(C)n2)cc1`, which solubility kinetic is on record?
The solubility kinetic was 5.6 µg/mL (≈ 23.2 µM).

For `COc1cc(/C=C/c2ccc3cccc(O)c3n2)ccc1O`, which solubility kinetic is on record?
Its solubility kinetic is 4.8 µg/mL (≈ 16.4 µM).

For `Cc1ccc(NC(=O)OCc2cncs2)cc1`, which solubility kinetic is on record?
Its solubility kinetic is greater than 37.2 µg/mL.

Which solubility kinetic does the source give for `Cc1ccccc1-c1nc2cc(Cl)ccc2c(=O)o1` here?
The solubility kinetic was less than 0.6 µg/mL.

With `O=S1(=O)CCN(C(CCO)c2cccc(C(F)(F)F)c2)CC1` (stereo unspecified) as the molecule, how does the solubility kinetic read?
The solubility kinetic was greater than 50.6 µg/mL.

With `CC1CCCN(c2ccc(C(=O)Nc3cccnc3)cc2[N+](=O)[O-])C1` (stereo unspecified) as the molecule, how does the solubility kinetic read?
Its solubility kinetic is 15.8 µg/mL (≈ 46.4 µM).

Which solubility kinetic does the source give for `CCNC(=O)c1cc(S(=O)(=O)N2CCSCC2)ccc1OC` here?
Its solubility kinetic is 45.1 µg/mL (≈ 131 µM).

Which solubility kinetic does the source give for `CN(C(=O)/C=C/c1cnc2ccccc2c1)C1CCCCC1` here?
Its solubility kinetic is greater than 44.2 µg/mL.

With `O=C(CCCc1ccccc1)NCc1ccccn1` as the molecule, how does the solubility kinetic read?
Its solubility kinetic is 29.2 µg/mL (≈ 115 µM).

For `Cc1nc([N+](=O)[O-])cn1CC(O)c1ccc(F)cc1` (stereo unspecified), which solubility kinetic is on record?
The solubility kinetic was greater than 39.8 µg/mL.

For `O=C(CCC(=O)N1CCOCC1)c1ccc(F)cc1`, which solubility kinetic is on record?
Its solubility kinetic is greater than 39.8 µg/mL.

With `CCCN1C2CCCC1CC(NC(=S)Nc1ccc(OC)cc1)C2` (stereo unspecified) as the molecule, how does the solubility kinetic read?
Its solubility kinetic is greater than 52.1 µg/mL.

Which solubility kinetic does the source give for `CCCOc1ccc(C2=CSC3=NCCN23)cc1Cl` here?
The solubility kinetic was 40.4 µg/mL (≈ 137 µM).

For `CCN1CC(CN(C)Cc2nc(-c3ccc(Cl)cc3)no2)CC1=O` (stereo unspecified), which solubility kinetic is on record?
Its solubility kinetic is greater than 52.3 µg/mL.

With `O=C1c2ccccc2C(Nc2ccccc2)N1Cc1ccc2c(c1)OCO2` (stereo unspecified) as the molecule, how does the solubility kinetic read?
Its solubility kinetic is 0.9 µg/mL (≈ 2.51 µM).

With `CC(=O)Nc1ccc(S(=O)(=O)NCCC(=O)OCC(=O)NCc2ccccc2)cc1` as the molecule, how does the solubility kinetic read?
Its solubility kinetic is greater than 65 µg/mL.

For `CC1C(=O)C(C)C(c2ccc(O)cc2)NC1c1ccc(O)cc1` (stereo unspecified), which solubility kinetic is on record?
The solubility kinetic was 45.4 µg/mL (≈ 146 µM).

With `CCN(CC)C(=O)c1cccc(C)c1` as the molecule, how does the solubility kinetic read?
Its solubility kinetic is 19.6 µg/mL (≈ 102 µM).

With `CN(C(=O)/C=C/c1ccc2c(c1)OCO2)c1ccccc1` as the molecule, how does the solubility kinetic read?
Its solubility kinetic is 34.7 µg/mL (≈ 123 µM).

With `CCCc1cc(=O)[nH]c(Nc2ccc(Cl)cc2)n1` as the molecule, how does the solubility kinetic read?
The solubility kinetic was 4.4 µg/mL (≈ 16.7 µM).

Which solubility kinetic does the source give for `Oc1ccc2ccccc2c1CN1CCOCC1` here?
The solubility kinetic was greater than 36.5 µg/mL.

With `CCn1c(SCC(=O)O)nnc1-c1ccccc1OC` as the molecule, how does the solubility kinetic read?
Its solubility kinetic is greater than 44 µg/mL.

Which solubility kinetic does the source give for `CCCCC(=O)Nc1ccccc1CC` here?
The solubility kinetic was greater than 30.8 µg/mL.

For `CCOc1ccccc1NC(=O)Cc1coc2ccc(C)cc12`, which solubility kinetic is on record?
Its solubility kinetic is 7.3 µg/mL (≈ 23.6 µM).

With `Cl.O=C(NCCCN1CCOCC1)c1cc(S(=O)(=O)N2CCOCC2)ccc1Cl` as the molecule, how does the solubility kinetic read?
Its solubility kinetic is greater than 70.3 µg/mL.

With `CC(NC(=O)CNC(=O)C1CCCCC1)c1cccc(Cl)c1` (stereo unspecified) as the molecule, how does the solubility kinetic read?
Its solubility kinetic is 42.6 µg/mL (≈ 132 µM).

For `Nc1cc(Cl)ccc1C(=O)OCC(=O)NCc1cccs1`, which solubility kinetic is on record?
The solubility kinetic was 7.7 µg/mL (≈ 23.7 µM).

For `CC(Oc1cccnc1[N+](=O)[O-])C(=O)Nc1ccc(Cl)cn1` (stereo unspecified), which solubility kinetic is on record?
Its solubility kinetic is 17 µg/mL (≈ 52.7 µM).

Which solubility kinetic does the source give for `Cc1cccc(Nc2nc(-c3ccc(O)c(O)c3)cs2)n1` here?
The solubility kinetic was 4.5 µg/mL (≈ 15 µM).

Which solubility kinetic does the source give for `CC(=O)Nc1ccc(NC(=O)c2nccnc2C(=O)O)cn1` here?
The solubility kinetic was greater than 45.2 µg/mL.

For `CCc1noc(C)c1C(=O)Nc1nc(-c2cccs2)cs1`, which solubility kinetic is on record?
The solubility kinetic was 19.3 µg/mL (≈ 60.4 µM).

For `COc1ccc(-c2ccc(CCC(=O)O)n2Cc2ccco2)cc1`, which solubility kinetic is on record?
The solubility kinetic was 48.1 µg/mL (≈ 148 µM).

For `Cl.NC(Cc1ccccc1)Cc1ccccc1`, which solubility kinetic is on record?
The solubility kinetic was greater than 37.2 µg/mL.

Which solubility kinetic does the source give for `CC(C)CCc1c(O)nc(SCC(C)C)[nH]c1=O` here?
The solubility kinetic was greater than 40.6 µg/mL.

For `Clc1ccc(-c2cc(CN3CCCCC3)no2)cc1Cl`, which solubility kinetic is on record?
Its solubility kinetic is 0.4 µg/mL (≈ 1.29 µM).

Which solubility kinetic does the source give for `O=C(NC(=O)c1ccccc1F)OCc1ccc(Cl)cc1Cl` here?
Its solubility kinetic is less than 0.7 µg/mL.

Which solubility kinetic does the source give for `O=C(NCCCn1ccnc1)c1ccccc1Br` here?
Its solubility kinetic is greater than 46.2 µg/mL.

Which solubility kinetic does the source give for `O=C(COC(=O)CNC(=O)c1ccc(F)cc1)NC1CCCc2ccccc21` (stereo unspecified) here?
The solubility kinetic was greater than 57.7 µg/mL.

For `CC(Nc1nc(-c2ccccc2F)nc2ccccc12)c1ccccc1` (stereo unspecified), which solubility kinetic is on record?
Its solubility kinetic is 3.2 µg/mL (≈ 9.32 µM).

— PubChem BioAssay AID1996
